In the Deep4Chem optical property database one finds photoluminescence quantum yield data, which are given here for 41 compounds.

A short description of the series: photoluminescence quantum yield (fraction); solvent given as SMILES.

With `COc1ccc(-c2c3cc4cc(C)sc4cc3c(-c3ccc(OC)cc3)c3cc4cc(C)sc4cc23)cc1`, the photoluminescence quantum yield (in ClCCl) turned out to be 0.61.
Compound `CCCCN1/C(=C/C=C/C2=[N+](C)c3ccccc3C2(C)C)C(C)(C)c2cc(OC)ccc21` registered a photoluminescence quantum yield (in CS(C)=O) of 0.03.
As for `[NH3+]C(Cc1ccc(O)c(O)c1)C(=O)[O-]` (centres undefined), the photoluminescence quantum yield (in O) turned out to be 0.075.
Compound `COC(=O)COc1ccc(/C=C/C2=[N+]3C(=C(c4ccc(N5CCCCC5)cc4)c4c(C)cc(C)n4[B-]3(F)F)C(C)=C2)cc1` gave a photoluminescence quantum yield (in CO) of 0.87.
Turning to `CC1(C)c2ccccc2N(c2ccc(-c3nc4c(C#N)ccc(C#N)c4nc3-c3ccc(N4c5ccccc5C(C)(C)c5ccccc54)cc3)cc2)c2ccccc21`, the photoluminescence quantum yield (in Cc1ccccc1) is 0.72.
Compound `COc1ccccc1-c1nc(-c2ccc(C(F)(F)F)cc2)n(-c2ccc(C)cc2)c1-c1ccccc1OC` came in with a photoluminescence quantum yield (in CC(C)O) of 0.65; a photoluminescence quantum yield (in CCCCCC) of 0.49; a photoluminescence quantum yield (in CO) of 0.6; a photoluminescence quantum yield (in CS(C)=O) of 0.49; a photoluminescence quantum yield (in ClCCl) of 0.27.
On to `CCCN1/C(=C/C=C(/C=C/c2sc3ccccc3[n+]2CCC)c2ccc([N+](=O)[O-])cc2)C(C)(C)c2ccccc21`, for which the photoluminescence quantum yield (in CO) amounted to 0.03, the photoluminescence quantum yield (in CS(C)=O) worked out at 0.03 and the photoluminescence quantum yield (in O) worked out at 0.06.
In the case of `NCc1ccc2ccc3cccc4ccc1c2c34`, the photoluminescence quantum yield was determined as 0.38 (in C1CCCCC1), 0.52 (in CC#N), 0.3 (in CO) and 0.07 (in ClC(Cl)Cl).
For `COc1ccc(N(c2ccc(OC)cc2)c2ccc(-c3ccc4c(c3)C(=O)c3ccccc3C4=O)cc2)cc1`, the photoluminescence quantum yield was found to be 0 (in C1CCOC1); 0.265 (in CCCCCC); 0 (in CCOC(C)=O); 0.0045 (in Cc1ccccc1); 0.0538 (in ClC(Cl)(Cl)Cl); 0 (in ClCCl).
Consider `CC(=O)OCCOCCN1C(=O)c2cc(NCCOCCO)c3c4c(cc(NCCOCCO)c(c24)C1=O)C(=O)N(CCOCCOC(C)=O)C3=O`, for which the photoluminescence quantum yield runs as follows: (in CO) 0.37; (in ClC(Cl)Cl) 0.59; (in O) 0.03.
As for `CCCCCCN(CCCCCC)c1ccc(C#Cc2ccc([N+](=O)[O-])cc2)cc1`, the photoluminescence quantum yield runs as follows: (in CO) 0.0016; (in ClCCl) 0.0015.
In turn, `CCCCCn1c2cc(/C=C/c3ccc(N(c4ccccc4)c4ccccc4)cc3)ccc2c2ccc(/C=C/c3ccc(N(c4ccccc4)c4ccccc4)cc3)cc21` showed a photoluminescence quantum yield (in Cc1ccccc1) of 0.81.
In turn, `CCOC(=O)c1nn(-c2ccc(OC)cc2)nc1N1CCCC1` had a photoluminescence quantum yield (in CC#N) of 0.731.
For `Cc1cccc(Nc2ccccc2C(=O)O)c1C`, the photoluminescence quantum yield is, setting by setting: (in C1CCCCC1) 0.0049; (in C1CCOC1) 0.0074; (in C1COCCO1) 0.0035; (in CC#N) 0.0013; (in CCOC(C)=O) 0.0032; (in CN(C)C=O) 0.0013.
As for `O=Cc1ccc(-c2cccc(-c3nc4ccccc4s3)c2O)s1`, the photoluminescence quantum yield is, setting by setting: (in CCO) 0.123; (in ClCCl) 0.164; (in O) 0.02.
`CC1(C)CCc2c(c3ccccc3c3nc4ccccc4nc23)O1`: the photoluminescence quantum yield by setting is: (in C1CCCCC1) 0.05; (in C1CCOC1) 0.1; (in CN(C)C=O) 0.13; (in CO) 0.23; (in ClC(Cl)Cl) 0.17; (in c1ccccc1) 0.12.
The compound `c1ccc(N(c2ccccc2)c2ccc(-c3nc(-c4ccc(N(c5ccccc5)c5ccccc5)cc4)c4ccccc4n3)cc2)cc1` came in with a photoluminescence quantum yield (in ClCCl) of 0.3.
Compound `COc1ccccc1C1=[N+]2C(=Nc3c(-c4ccccc4)cc(-c4ccccc4OC)n3[B-]2(F)F)C(c2ccccc2)=C1` yielded a photoluminescence quantum yield (in Cc1ccccc1) of 0.07.
For `CCC1(CC)c2ccccc2-c2c1c1c(c3c2C(CC)(CC)c2cc(B(c4c(C)cc(C)cc4C)c4c(C)cc(C)cc4C)ccc2-3)C(CC)(CC)c2cc(B(c3c(C)cc(C)cc3C)c3c(C)cc(C)cc3C)ccc2-1`, the photoluminescence quantum yield (in C1CCOC1) is 0.4.
In turn, `Cc1ccc(C2C(C#N)=C(N)n3c(=O)c4ccccc4c(=O)n32)cc1` (centres undefined) gave a photoluminescence quantum yield (in CS(C)=O) of 0.045.
As for `N#Cc1ccc(C#Cc2ncc(-c3ccccc3)o2)cc1`, the photoluminescence quantum yield (in ClCCl) is 0.28.
`O=C(c1ccccc1)c1cc2ccc1CCc1ccc(cc1-c1ccc(N(c3ccccc3)c3ccccc3)cc1)CC2` displayed a photoluminescence quantum yield (in c1cc(-n2c3ccccc3c3ccccc32)cc(-n2c3ccccc3c3ccccc32)c1) of 0.12.
As to `C(=C\c1ccc(/C=C/c2ccc(N(c3ccccc3)c3ccccc3)cc2)c2nsnc12)/c1ccc(N(c2ccccc2)c2ccccc2)cc1`, the photoluminescence quantum yield was determined as 0.228 (in C1CCOC1); 0.275 (in CCOC(C)=O); 0.061 (in CN(C)C=O); 0.345 (in Cc1ccccc1); 0.148 (in ClC(Cl)Cl); 0.137 (in ClCCl).
Consider `N#CC1=CC(c2ccccc2)=CC(C#N)=P1(c1ccccc1)c1ccccc1`, for which the photoluminescence quantum yield (in ClC(Cl)Cl) is 0.75.
As for `COc1cc2c(cc1-c1ccc(F)cc1)Cc1c3c(c4c(c1-2)-c1cc(OC)c(-c2ccc(F)cc2)cc1C4)C(=O)N(CCC(C)C)C3=O`, the photoluminescence quantum yield (in C1CCOC1) is 0.52.
With `CC1(C)C2=[N+](CCCCCC(=O)NCCCNC(=O)CCCCCN3/C(=C/C=C/C=C/C=C/2)C(C)(C)c2cc(S(=O)(=O)[O-])ccc23)c2ccc(S(=O)(=O)[O-])cc21`, the photoluminescence quantum yield is 0.58 (in CO) and 0.36 (in O).
In turn, `CCN(CC)c1ccc2cc(C#N)/c(=N\C(=O)c3ccco3)oc2c1` registered a photoluminescence quantum yield (in CCO) of 0.033 and a photoluminescence quantum yield (in ClCCl) of 0.9.
Consider `Cc1cc(=O)oc2c3c4c(cc12)CCCN4CCC3`, for which the photoluminescence quantum yield is 0.9 (in CCC#N); 0.8 (in CCCCl); 0.8 (in CCO); 0.86 (in OC(C(F)(F)F)C(F)(F)F); 0.84 (in OCC(F)(F)F).
Take `CN(C)c1ccc(C2=Cc3cccc[n+]3[B-](F)(F)O2)cc1`: the photoluminescence quantum yield runs as follows: (in C1CCOC1) 0.684; (in C1COCCO1) 0.794; (in CC1CCCCC1) 0.519; (in CC#N) 0.517; (in CCOC(C)=O) 0.699; (in CCOCC) 0.868. Also, the photoluminescence quantum yield amounted to 0.382 (in CN(C)C=O), 0.454 (in CO), 0.569 (in COC(C)=O) and 0.705 (in ClC(Cl)Cl).
Take `CC/[NH+]=c1\cc2oc3cc(NCCC(=O)NC(C(=O)OC)C(C)C)c4ccccc4c3nc-2cc1C` (centres undefined): the photoluminescence quantum yield is 0.4 (in CCO) and 0.26 (in O).
Consider `c1ccc(C(=C(c2ccccc2)c2ccc(-c3nc4c(-c5ccc(C(=C(c6ccccc6)c6ccccc6)c6ccccc6)cc5)sc(-c5ccc(C(=C(c6ccccc6)c6ccccc6)c6ccccc6)cc5)c4nc3-c3ccc(C(=C(c4ccccc4)c4ccccc4)c4ccccc4)cc3)cc2)c2ccccc2)cc1`, for which the photoluminescence quantum yield (in Cc1ccccc1) was found to be 0.267 and the photoluminescence quantum yield (in ClCCl) worked out at 0.109.
With `FC(F)(F)c1ccc2oc3nc4oc5ccc(N(c6ccccc6)c6ccccc6)cc5c4cc3c2c1`, the photoluminescence quantum yield (in ClC(Cl)Cl) amounted to 0.099.
As for `COc1ccc(C2=C(c3ccc(OC)cc3)c3cccc4c3c(cc3nc5ccccc5nc34)O2)cc1`, under “in ClCCl”, the photoluminescence quantum yield came to 0.48.
`CCCCN(CCCC)c1ccc(C#Cc2cc(C#Cc3cc(C(F)(F)F)cc(C(F)(F)F)c3)c(C#Cc3ccc(N(CCCC)CCCC)cc3)cc2C#Cc2cc(C(F)(F)F)cc(C(F)(F)F)c2)cc1` returned a photoluminescence quantum yield (in ClCCl) of 0.25.
The same measure, in the same setting: next, `COc1ccccc1C1=[N+]2C(=C(c3ccccc3)c3c4c(c(-c5ccccc5OC)n3[B-]2(F)F)C2CCC4CC2)C2=C1C1CCC2CC1`: 0.77.
As to `F[B-]1(F)OC(c2ccccc2)=C(c2ccccc2)c2oc3ccccc3[n+]21`, under “in C1CCOC1”, the photoluminescence quantum yield turned out to be 0.013.
For `c1ccc(-c2nc(-c3c[nH]c4ccccc34)n3ccccc23)cc1`, the photoluminescence quantum yield (in ClCCl) stood at 0.162.
For `COC(=O)C(NC(=O)OC(C)(C)C)c1ccc2oc(-c3ccc(F)cc3)nc2c1` (centres undefined), the photoluminescence quantum yield is 0.49 (in CC1CCCCC1), 0.46 (in CC#N) and 0.48 (in CO).
The compound `CC(C)[Si](C#Cc1c2ccccc2c(C#C[Si](C(C)C)(C(C)C)C(C)C)c2nc3c(ccc4ccccc43)nc12)(C(C)C)C(C)C` had a photoluminescence quantum yield (in CCCCCC) of 0.51.
Regarding `COc1ccc(C#Cc2ccccc2C#Cc2ccc(OC)cc2)cc1`, where the note is “in CC#N”, the photoluminescence quantum yield was 0.83.
With `C[Si]1(C)c2ccc(-c3ccccc3)cc2C=Cc2cc(-c3ccccc3)ccc21`, the photoluminescence quantum yield (in ClCCl) turned out to be 0.38.
